According to PubChem BioAssay (NCI):
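These data come from cells grown in 96-well plates and exposed to compound for 48 hours at five concentrations. TGI denotes the concentration required for complete inhibition of growth.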 Where a SMILES comes first, the peptide text is derived from it. [ ]: non-standard residue; d: D form. The star is where a group is joined. ξ: configuration not given here. Propanoyl(3-(4-MeO-Ph)) = COc1ccc(CCC(=O)*)cc1; Thr(3ξ) = CC(O)[C@H](N)C(=O)O; dNMeL = CN[C@H](CC(C)C)C(=O)O; OBn = c1ccc(CO*)cc1; ξLac = CC(O)C(=O)O

Columns and labels:
Assay in all cases: NCI-60 cell line screen, 48 h
[1] = tested on: HL-60(TB) leukemia
[2] = tested on: RPMI-8226 leukemia
[3] = tested on: U251 CNS
[4] = tested on: MDA-N
[5] = tested on: M14 melanoma
[6] = tested on: T-47D breast
[7] = tested on: TK-10 renal
[8] = tested on: NCI-H460 lung
[9] = tested on: HOP-62 NSCLC
[10] = tested on: UO-31 renal

| Structure (SMILES) | TGI [1] | TGI [2] | TGI [3] | TGI [4] | TGI [5] | TGI [6] | TGI [7] | TGI [8] | TGI [9] | TGI [10] |
| --- | --- | --- | --- | --- | --- | --- | --- | --- | --- | --- |
| COc1cc(C(=O)Nc2c3ccccc3nc3ccccc23)cc(OC)c1OC | 5.58 µM | > 100 µM | > 100 µM | > 100 µM | > 100 µM | > 100 µM | > 100 µM | > 100 µM | > 80.1 µM | > 100 µM |
| Cc1ccc2cccc3c2c1CC1(C3=O)S(=O)(=O)OCCOS1(=O)=O | > 100 µM | > 100 µM | > 100 µM | > 100 µM | > 100 µM | > 100 µM | > 100 µM | > 100 µM | > 100 µM | > 100 µM |
| O=C(/C=C/c1cccs1)c1cccc(C(=O)/C=C/c2cccs2)n1 | 43 µM | 16 µM | > 75.8 µM | > 100 µM | > 100 µM | > 100 µM | > 100 µM | > 100 µM | > 100 µM | > 100 µM |
| O=C1OC(C2OC(=O)c3cc(O)c(O)c(O)c3-c3c(O)c(O)c4oc(=O)c5c(c(O)c(O)c6oc(=O)c3c4c65)-c3c(cc(O)c(O)c3O)C(=O)OCC2O)C2OC(=O)c3c(c(O)c(O)c(O)c3[C@H]2O)-c2c1cc(O)c(O)c2O (stereo partly specified) | 38.8 µM | 76.9 µM | 57.6 µM | 53.8 µM | 39.5 µM | 80.1 µM | – | > 100 µM | > 100 µM | 81.9 µM |
| CN(C)CCNC(=O)c1ccc(NCCCN(C)CCCNc2ccc(C(=O)NCCN(C)C)c3[nH]c4ccc([N+](=O)[O-])cc4c(=O)c23)c2c(=O)c3cc([N+](=O)[O-])ccc3[nH]c12 | 1.01 µM | 0.151 µM | 0.162 µM | 0.997 µM | 2.09 µM | 2.55 µM | 1.38 µM | 0.169 µM | 1.92 µM | 2.01 µM |
| CC1=C(C(=O)NCC(C)O)CC(C(=O)NCC(C)O)=C(C)N1 (stereo unspecified) | > 100 µM | > 100 µM | > 100 µM | > 100 µM | > 100 µM | > 100 µM | > 100 µM | > 100 µM | > 100 µM | > 100 µM |
| Cc1ccc([N+](=O)[O-])cc1S(=O)(=O)Nc1ccc(C2=NNC(c3cccs3)C2)cc1 (stereo unspecified) | 50.9 µM | > 100 µM | – | > 100 µM | 68.8 µM | 43.4 µM | – | > 100 µM | 60.2 µM | > 100 µM |
| CC1(C)C[C@H](O)[C@H](O)[C@]23C(=O)O[C@H](O)[C@H]2C(C=O)=CC[C@@H]13 | > 100 µM | > 100 µM | > 100 µM | > 100 µM | – | > 100 µM | > 100 µM | > 100 µM | > 100 µM | > 100 µM |
| NCCCc1c(-c2ccccc2)nc(N)[nH]c1=O | > 100 µM | > 100 µM | > 100 µM | > 100 µM | > 100 µM | > 100 µM | > 100 µM | > 100 µM | > 100 µM | > 100 µM |
| COc1ccc(CCC(=O)OC(C)[C@H](NC(=O)[C@@H](CC(C)C)N(C)C(=O)[C@@H]2CCCN2C(=O)C(C)O)C(=O)OCc2ccccc2)cc1 (stereo partly specified) (H-[ξLac]P[dNMeL][Thr(3ξ)](Propanoyl(3-(4-MeO-Ph)))-OBn) | 72.6 µM | 80.6 µM | > 100 µM | > 100 µM | 30.6 µM | 74.5 µM | > 100 µM | > 100 µM | > 100 µM | > 100 µM |
| Cc1ccc(/C=N/Nc2nncc3ccccc23)s1 | > 100 µM | > 100 µM | > 100 µM | > 100 µM | > 100 µM | > 100 µM | > 100 µM | > 100 µM | > 77.4 µM | > 100 µM |
| O=C1CC(c2ccc[nH]2)=NN1c1ccccc1 | > 100 µM | > 100 µM | > 100 µM | > 100 µM | > 100 µM | > 100 µM | > 100 µM | > 100 µM | > 100 µM | > 100 µM |
| O=c1[nH]c2ccc(CC(=S)N3CCN(c4ccccc4)CC3)cc2o1 | > 100 µM | > 100 µM | > 100 µM | > 76.7 µM | > 100 µM | > 100 µM | > 100 µM | > 100 µM | > 100 µM | > 100 µM |
| CC1(C)N=C(/C=N/O)C(C)(C)N1O | > 100 µM | > 100 µM | > 100 µM | > 100 µM | > 100 µM | > 100 µM | > 100 µM | > 100 µM | > 100 µM | > 100 µM |
| COc1ccc(CCc2ccc(O)c(C(=O)O)c2)cc1OC | > 100 µM | > 100 µM | > 100 µM | > 100 µM | > 100 µM | > 100 µM | > 100 µM | > 100 µM | > 100 µM | > 100 µM |
| Clc1ccc2c(NCCNc3ccnc4cc(Cl)ccc34)ccnc2c1 | 31 µM | 42 µM | 32.1 µM | 31.6 µM | 31.2 µM | 43.8 µM | 34.6 µM | 27 µM | 30.1 µM | 29.1 µM |
| CN[C@@H](C)[C@H](OP(=O)(O)OC1[C@@H](O)[C@H](O)C(O)[C@H](O)[C@@H]1O)c1ccccc1 (stereo partly specified) | > 100 µM | > 100 µM | > 100 µM | > 100 µM | > 100 µM | > 100 µM | > 100 µM | > 100 µM | > 100 µM | > 100 µM |
